# Laboratory results: US20230265068A1, “TRANSIENT RECEPTOR POTENTIAL CANONICAL 3 INHIBITORS AND METHODS OF USE THEREOF” (University of Tennessee Research Foundation, priority 2020, published 2023)
# Read-outs that look alike come from different tables or passages of the source.
# Legend:
# [1] = maximum tolerated dose / in vivo toxicity study in mice; conditions: mouse, in vivo
# Procedure: The in vivo study was performed in compliance with the NIH Animal Use Guidelines and protocol approved by the Institutional Animal Care and Use Committee (IACUC) at the University of Tennessee Health Science Center (UTHSC, Memphis, Tenn.). NSG mice at 8 weeks (n=2) and ICR mice at 12 weeks (n=3) were housed with a 12:12-hour light-dark cycle and fed a breeder chow diet. Daily IP injections of 200 mg/kg of compounds 22 or 79 were administered for five consecutive injections in five mice, respectively, which were followed to monitor the mortality rate. Body weights of the mice were recorded daily.
# (§1) The metabolic stability of compound 22 was tested prior to the next phase of in vivo study. […] The maximum tolerated dose (MTD) study was subsequently performed to investigate its in vivo toxicity (FIGS. 4A and 4B). The second major limitation of Pyr3 is its toxicity due to its alkylating tail moiety. While replacing only the fast-metabolizing head ester group in Pyr3 with a stable amide (compound 79) improved metabolic stability, a single IP injection of compound 79 at 200 mg/kg killed all mice within 24 h.
# Compound 79 is a metabolically stable version of Pyr3. Mice treated daily with compound 22 or compound 79 (n=5) for 5 consecutive days. All the mice were treated with either compound 22 or 79 at 200 mg/kg (IP). […]
# hippocampal neurons [2] = assay: neuroprotection against Aβ-containing conditioned medium (7PA2) in primary hippocampal neurons; type: cell-based, rat; conditions: 14 DIV neurons, 7PA2 medium, 16 hours, different concentrations
# Procedure: To visualize dendritic spines, 14 DIV hippocampal neurons at low density (5,000 cells per 35 mm dish) were exposed to 7PA2 conditioned media (CM), which contains naturally secreted Aβ, or CHO control media or for 16 h, with or without cotreatment with the two inhibitor compounds, followed by immunocytochemistry with MAP2 and DAPI counterstaining.
# (§2) To explore the potential biological effects of compound 22 in a TRPC3 related disease model, its neuroprotective ability in primary cultured neurons (14 DIV prepared from E17 rats as described) was evaluated. The effects on neuron dendritic morphology were measured by imaging. Mature hippocampal neurons (DIV=14) were treated with CHO control medium, or naturally secreted Aβ-containing conditioned medium (7PA2), or in combination with compound 22 or Pyr3 at different concentrations, for 16 hours, followed by immunocytochemistry using an antibody against MAP2 and DAPI (data not shown). […] Hippocampal neurons (DIV=14) were treated with compound 22 or Pyr3 alone at different concentrations, followed by immunocytochemistry staining with MAP2 and DAPI (data not shown).
# TRPC3 [3] = biological target: T1, TRPC3 (Homo sapiens, UniProt Q13507); conditions: cited from earlier work
# T1 sequence (Q13507 1-921): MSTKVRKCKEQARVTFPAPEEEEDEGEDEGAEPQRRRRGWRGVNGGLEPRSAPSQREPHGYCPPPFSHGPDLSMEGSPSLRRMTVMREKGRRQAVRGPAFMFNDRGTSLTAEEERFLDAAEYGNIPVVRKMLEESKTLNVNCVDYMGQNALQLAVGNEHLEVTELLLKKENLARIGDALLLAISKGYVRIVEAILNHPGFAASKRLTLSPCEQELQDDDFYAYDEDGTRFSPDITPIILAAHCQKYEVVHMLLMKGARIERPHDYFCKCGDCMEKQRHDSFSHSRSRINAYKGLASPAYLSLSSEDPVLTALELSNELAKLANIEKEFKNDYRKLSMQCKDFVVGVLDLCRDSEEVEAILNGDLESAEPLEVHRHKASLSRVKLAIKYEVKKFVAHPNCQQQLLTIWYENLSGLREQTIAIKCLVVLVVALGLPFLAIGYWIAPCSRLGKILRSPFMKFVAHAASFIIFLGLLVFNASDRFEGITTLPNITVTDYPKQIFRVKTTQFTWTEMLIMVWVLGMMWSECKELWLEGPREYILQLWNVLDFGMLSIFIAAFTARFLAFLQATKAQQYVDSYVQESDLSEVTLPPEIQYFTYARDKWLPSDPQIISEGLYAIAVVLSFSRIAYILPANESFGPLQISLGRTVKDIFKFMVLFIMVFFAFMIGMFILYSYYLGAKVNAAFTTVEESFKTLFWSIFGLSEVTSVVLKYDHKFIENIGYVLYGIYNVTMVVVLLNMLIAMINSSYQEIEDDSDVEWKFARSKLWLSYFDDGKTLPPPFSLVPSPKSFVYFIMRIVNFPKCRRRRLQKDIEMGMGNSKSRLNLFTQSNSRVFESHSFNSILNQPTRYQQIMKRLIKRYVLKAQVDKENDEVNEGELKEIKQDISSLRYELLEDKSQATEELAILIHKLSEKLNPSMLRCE
# hippocampal neurons [4] = assay: toxicity of compound alone in hippocampal neuronal culture; type: cell-based, rat; conditions: compound alone at different concentrations
# Procedure: as §2
# [5] = metabolic stability in rat liver microsomes; type: in vitro ADME; conditions: rat liver microsomes
# Procedure: as §1
# [6] = metabolic stability in mouse liver microsomes; type: in vitro ADME; conditions: mouse liver microsomes
# Procedure: as §1
# TRPC3 [7] = biological target: T1, TRPC3; assay: whole-cell patch clamp of HEK293 cells transfected with hTRPC3, currents activated by GSK1702934A; type: cell-based; parameters: expressed in transfected cells; host or cells: HEK293 (CRL-1573), transient transfection, pMO vector; conditions: for inhibition at 10 µM: read-out: hTRPC3 % Inhibition at 10 μM (mean ± SEM)
# Procedure: Human embryonic kidney 293 (HEK293; catalog number CRL-1573) cells were cultured in Dulbecco's modified Eagle's medium (Invitrogen) supplemented with 10% fetal bovine serum and 1% penicillin-streptomycin at 37° C. and 5% CO2. Constructs cloned in pMO (a pcDNA3-modified vector) were co-transfected with GFP-pMO, using Lipofectamine 2000 (Invitrogen) according to the manufacturer's instructions. Macroscopic currents in the whole-cell patch clamp configuration were recorded 18-24 h post-transfection. The extracellular solution contained 140 mM NaCl, 6 mM KCl, 2 mM MgCl2, 10 mM HEPES, and 10 mM glucose (pH 7.4). Pipettes were made of borosilicate glass (outer diameter, 1.5 mm; inner diameter, 1.10 mm; Sutter Instruments) and fire-polished with a resistance between 2.8 and 4.0 megaohms when filled with an intracellular solution that contained 140 mM CsCl, 5 mM EGTA, and 10 mM HEPES, pH 7.2. Currents were recorded with a Multiclamp 700B amplifier (Molecular Devices) using a 1-s ramp from −100 to 100 mV. Agonist and antagonists perfused were dissolved in the bath solution prior experiments: TRP channel agonists Allyl isothiocyanate (AITC; TRPA1), capsaicin (TRPV1), and menthol (TRPM8) were obtained from Sigma, GSK1016790A (TRPV4) from Cayman chemicals, and GSK1702934A (TRPC3, TRPC6 and TRPC7) from Tocris Bioscience. Antagonist Pyr3 was obtained from Tocris Bioscience, all other antagonists were synthesized in house. Data were acquired with a sampling rate of 20 kHz, low-pass filtered (10 kHz), and analyzed offline using Clampfit v10.4.2.0 (Molecular Devices).
# Electrophysiology results were expressed as means±SD. Data were plotted, and sigmoidal fitting was done using OriginPro (from OriginLab), with the following Boltzmann function:
# Using the patch clamp technique in the whole-cell configuration, compounds were screened by challenging hTRPC3 overexpressing HEK293 cells with GSK1702934A to activate TRPC3 and each of the synthesized compounds (10 μM) individually in the presence of the agonist.
# To avoid tachyphylaxis and determine the IC50 of compound 22, each point of the dose response curve (FIG. 1B) was done individually on a cell and exchanging coverslips between cells. […] FIGS. 1D-1I show the inhibition of TRPC3-mediated currents by compound 22 and Pyr3 (serving as the reference control). […] Similar results were obtained when OAG was used as the agonist (data not shown).
# [8] = metabolic stability in human liver microsomes; type: in vitro ADME; conditions: human liver microsomes
# Procedure: as §1
# [9] = 10 μM compound in presence of agonist GSK1702934A, HEK293 whole-cell peak current
compound,measurement,setting,value
"CCOC(=O)c1cnn(-c2ccc(-n3ccc(Cl)c(Br)c3=O)cc2)c1C(F)(F)F [Compound 8, Ethyl 1-(4-(3-bromo-4-chloro-2-oxopyridin-1(2H)-yl)phenyl)-5-(trifluoromethyl)-1H-pyrazole-4-carboxylate]",survival of treated mice,[1],alive
"CCOC(=O)c1cnn(-c2ccc(NC(=O)C(Cl)=C(Cl)Cl)cc2)c1C(F)(F)F [Pyr3, reference compound]",protection against Aβ-induced damage to dendrites (MAP2/DAPI),hippocampal neurons [2],protect against Aβ-induced damage to dendrites
same,IC50,"TRPC3 [3]; literature ref 20, read-out: reported IC50 for suppression of TRPC3",700 nM
same,toxicity in neuronal culture,hippocampal neurons [4],lack of toxicity
same,half-life time,[5],less than 15 minutes
same,half-life time,[6],less than 15 minutes
same,hTRPC3 % Inhibition at 10 μM (mean ± SEM),TRPC3 [7]; [9],91.72 ± 0.53%
same,IC50,"TRPC3 [7]; agonist GSK1702934A, HEK293 whole-cell patch clamp, read-out: hTRPC3 IC50 (μM, mean ± SEM)",0.53 ± 0.05 µM
same,half-life time,[8],less than 15 minutes
"CCCCNC(=O)c1cnn(-c2ccc(-n3ccc(Cl)c(Cl)c3=O)cc2)c1C(F)(F)F [Compound 40, N-butyl-1-(4-(3,4-dichloro-2-oxopyridin-1(2H)-yl)phenyl)-5-(trifluoromethyl)-1H-pyrazole-4-carboxamide]",inhibition at 10 µM,TRPC3 [7]; [9],40.2 ± 3.95%
"CCOC(=O)c1cnn(-c2ccc(-n3cc(Cl)ccc3=O)cc2)c1C(F)(F)F [Compound 3, Ethyl 1-(4-(5-chloro-2-oxopyridin-1(2H)-yl)phenyl)-5-(trifluoromethyl)-1H-pyrazole-4-carboxylate]",inhibition at 10 µM,TRPC3 [7]; [9],54 ± 7.25%
"CCNC(=O)c1nn(-c2ccc(-n3ccc(Cl)c(Cl)c3=O)cc2)nc1C(F)(F)F [Compound 63, 2-(4-(3,4-dichloro-2-oxopyridin-1(2H)-yl)phenyl)-N-ethyl-5-(trifluoromethyl)-2H-1,2,3-triazole-4-carboxamide]",inhibition at 10 µM,TRPC3 [7]; [9],86.9 ± 3.83%
O=C(Nc1ccc(-n2ncc(C(=O)O)c2C(F)(F)F)cc1)C(Cl)=C(Cl)Cl [Pyr8],TRPC3 inhibition,TRPC3 [3]; literature ref 21,little TRPC3 inhibition
"CCNC(=O)c1sc(-c2ccc(-n3ccc(Cl)c(Cl)c3=O)cc2)nc1C(F)(F)F [Compound 65, 2-(4-(3,4-dichloro-2-oxopyridin-1(2H)-yl)phenyl)-N-ethyl-4-(trifluoromethyl)thiazole-5-carboxamide]",inhibition at 10 µM,TRPC3 [7]; [9],54.9 ± 4.61%
